Results published in patent US20250375492A1, “MONASCUS PILOSUS STRAIN, COMPOSITION FOR PREVENTING OR TREATING NONALCOHOLIC FATTY LIVER DISEASE AND USE OF SAID MONASCUS PILOSUS” (SUNWAY BIOTECH CO., LTD., priority 2024, published 2025).

Test system: gut microbiota of nonalcoholic fatty liver mice
Test: Gut microbiota analysis (full-length 16S sequencing) in nonalcoholic fatty liver mice
Type: in vivo, C57BL/6J mice
Conditions: compared with the HFD group; L008, H008 and Msol groups; FIG. 9
Procedure: The experiment used 7-week-old male C57BL/6J strain mice purchased from the National Laboratory Animal Center. The initial body weight was about 23 g, with 12 mice per group. They were housed at 60% relative humidity, room temperature 25±1° C., with a 12-hour light cycle (8:00-20:00). The experiment lasted for 22 weeks, during which food and water were provided ad libitum. Body weight, food intake, and water consumption were measured weekly.
Embodiment 4 uses a high-fat feed to induce a nonalcoholic fatty liver animal model. The animal experiment lasted for 22 weeks. Animal test feed was prepared according to the formula of Research Diets (New Brunswick, NJ, USA) for D12450B and D12492. The grouping is as follows: • i. […]
Total genomic DNA was extracted from samples (QIAamp PowerFecal DNA, Qiagen). DNA concentration was determined using a Qubit 4.0 fluorometer (Thermo Scientific) and adjusted to 1 ng/μL. […] PCR reactions were performed using KAPA HiFi HotStart ReadyMix (Roche): 95° C., 3 minutes; 20-27 cycles (sample-dependent): 95° C., 30 seconds, 57° C., 30 seconds, 72° C., 60 seconds; 72° C. for 5 minutes, and final storage at 4° C. PCR products were monitored on 1% agarose gel. […]
Sample data were demultiplexed from the raw data based on Barcode sequences and PCR amplification primer sequences. […] The sequences with primers removed were used as QIIME2 DADA2 Input Reads. […]

Monascinol [Msol]
microbial population (abundance) of Blautia in the intestine: increase
microbial population (abundance) of Intestinimonas in the intestine: increase
